{"source": "patent US20250102494A1", "about": "“COMPOSITION FOR PREDICTING OXALIPLATIN DRUG EFFICACY, AND USE THEREOF” (SAMSUNG LIFE PUBLIC WELFARE FOUNDATION, priority 2022, published 2025)", "test_system": "HCT116 cells", "assay": "ATPlite cell viability after drug treatment, HCT116 cells in cell-line or organoid culture media", "type": "cell-based", "parameters": "AUC 1st / AUC 2nd / AUC 3rd / AUC Average: unit not given here", "method": "Advanced DMEM/F12+++ (hereinafter referred to as “Ad/DF+++”) was used to produce colorectal cancer organoids. Ad/DF+++ was refrigerated at 4° C. until use, and was used in a cold state during cell washing. Ad/DF+++ medium containing the reagents shown in Table 1 below along with Ad/DF 1× (Gibco) was prepared.\nAfter preparing the Ad/DF+++ medium containing the above reagents, an appropriate amount of Matrigel (Corning #356231) was added so that the ratio between Matrigel and cells suspended in the Ad/DF+++ medium was 7:3. Then, the cells were plated on low attachment well plates at an appropriate density. The density and the type and number of well plates were determined according to the characteristics of each cell type. The medium was prepared according to the composition shown in Table 2 below, and the cells were cultured (expanded) until the required level was reached while the medium was replaced every 3 to 4 days.\nIf the organoids were expanded as needed for the experiment, the medium was carefully removed, taking care not to touch the Matrigel. The cells were separated from the Matrigel by pipetting about 20 times with 1 ml of cold Ad/DF+++. The cells in 1 to 4 wells per 6-well plate were collected in one 50 ml tube. If cells are collected from more than 4 wells into one tube, the Metrigel may not be washed properly. For this reason, the cells were placed in several tubes. Thereafter, Ad/DF+++ was poured to 20 to 50 ml of each tube, followed by centrifugation at 400 g for 3 minutes at 4° C. The cells were dissociated with 1 to 2 mL of TrypLE™ Express Enzyme (Gibco, 1264-013), transferred to low-attachment 24 well plates, and then treated with 10 μM of Y-27632. Next, the cells were cultured in a CO2 incubator for 5 minutes at 37° C. After pipetting about 20 times, whether the cells would be dissociated into single cells was checked by microscopic observation. If the cells were not dissociated into single cells, the culture under CO2 and pipetting processes were repeated. After the single cells were transferred into 15-ml tubes, Ad/DF+++ was filled to 10 to 15 ml of each tube, followed by centrifugation at 400 g at 4° C. for 3 minutes. After suspending the pellet in Ad/DF+++, the cells were counted and diluted with medium according to the required number of cells.\n12 hours after seeding in Experimental Example 1-2 above, the medium was changed with the medium shown in Table 3 below, followed by culturing to produce organoids.\nFour hours after the medium change, the cells were treated with oxaliplatin, 5-FU, Irinotecan, and folinic acid. Five days after drug treatment, intracellular ATP expression was determined using the ATPlite assay kit (PerkinElmer), and the data were expressed in terms of cell viability, IC50, and AUC.\nAs the standard for confirming that cells are sensitive to the drug, the response of the cells to the drug was assumed to be 100%, and the luminescence value of surviving cells after drug treatment was analyzed and compared with the quantified drug response value.\nBased on the assumption that the factor that increases the resistance of the organoids to oxaliplatin is an activator or inhibitor that changes the phenotype, the organoids prepared by excluding some or all of activators and inhibitors as shown in Table 4 below were treated with oxaliplatin.\nIn order to identify the factors that reduce the resistance to oxaliplatin of the Ex2 organoid, activators or inhibitors that change the phenotype were added one by one to the Ex2 organoid composition, thus producing organoids as shown in Table 8 below. Then, it was checked whether the produced organoids had increased resistance to oxaliplatin.", "note": "Where two headings read alike, the source gives them in different places."}
{"smiles": "O=C1[O][Pt]2([NH][C@@H]3CCCC[C@H]3[NH]2)[O]C1=O", "note": "[oxaliplatin]", "values": [{"measurement": "AUC value, Ex2 compared with Ex1", "setting": "HCT116, FIG. 3", "result": "significantly lower AUC values than those of Ex1"}, {"measurement": "AUC value, Ex3 and Ex4 compared with Ex1", "setting": "HCT116, FIG. 3", "result": "lower AUC values than Ex1"}, {"measurement": "IC50 value, Ex2 compared with Ex1", "setting": "HCT116, FIG. 4", "result": "similarly lowered in Ex2 compared to Ex1"}, {"measurement": "cell viability versus oxaliplatin concentration", "setting": "HCT116, McCoys control, Ex1, Ex2, FIG. 5", "result": "similarly lowered in the control (McCoys) HCT116 cells and the cells cultured under the organoid culture conditions of Ex2"}, {"measurement": "AUC 1st", "setting": "HCT116 cell line in McCoys (control), 1st", "result": 312.3}, {"measurement": "IC50", "setting": "HCT116 cell line in McCoys (control), 1st, read-out: IC50 (μM) 1st", "result": 24.1, "unit": "µM"}, {"measurement": "AUC 2nd", "setting": "HCT116 cell line in McCoys (control), 2nd", "result": 278.4}, {"measurement": "IC50", "setting": "HCT116 cell line in McCoys (control), 2nd, read-out: IC50 (μM) 2nd", "result": 10.7, "unit": "µM"}, {"measurement": "AUC 3rd", "setting": "HCT116 cell line in McCoys (control), 3rd", "result": 307.3}, {"measurement": "IC50", "setting": "HCT116 cell line in McCoys (control), 3rd, read-out: IC50 (μM) 3rd", "result": 28.8, "unit": "µM"}, {"measurement": "AUC Average", "setting": "HCT116 cell line in McCoys (control), average", "result": 299.3}, {"measurement": "IC50", "setting": "HCT116 cell line in McCoys (control), average, read-out: IC50 (μM) Average", "result": 21.2, "unit": "µM"}, {"measurement": "AUC 1st", "setting": "HCT116 in Ex1 (all inhibitors and activators), 1st", "result": 379.7}, {"measurement": "IC50", "setting": "HCT116 in Ex1 (all inhibitors and activators), 1st, read-out: IC50 (μM) 1st", "result": 133, "unit": "µM"}, {"measurement": "AUC 2nd", "setting": "HCT116 in Ex1, 2nd", "result": 379.9}, {"measurement": "IC50", "setting": "HCT116 in Ex1, 2nd, read-out: IC50 (μM) 2nd", "result": 98, "unit": "µM"}, {"measurement": "AUC 3rd", "setting": "HCT116 in Ex1, 3rd", "result": 390.0}, {"measurement": "IC50", "setting": "HCT116 in Ex1, 3rd, read-out: IC50 (μM) 3rd", "result": 167, "unit": "µM"}, {"measurement": "AUC Average", "setting": "HCT116 in Ex1, average", "result": 383.2}, {"measurement": "IC50", "setting": "HCT116 in Ex1, average, read-out: IC50 (μM) Average", "result": 133, "unit": "µM"}, {"measurement": "AUC 1st", "setting": "HCT116 in Ex2 (no inhibitors, no activators), 1st", "result": 319.8}, {"measurement": "IC50", "setting": "HCT116 in Ex2 (no inhibitors, no activators), 1st, read-out: IC50 (μM) 1st", "result": 27.8, "unit": "µM"}, {"measurement": "AUC 1st", "setting": "HCT116 in Ex2-1 (Ex2 + A83-01 500 nM), 1st", "result": 328.0}, {"measurement": "IC50", "setting": "HCT116 in Ex2-1 (Ex2 + A83-01 500 nM), 1st, read-out: IC50 (μM) 1st", "result": 46, "unit": "µM"}, {"measurement": "AUC 2nd", "setting": "HCT116 in Ex2-1, 2nd", "result": 341.6}, {"measurement": "IC50", "setting": "HCT116 in Ex2-1, 2nd, read-out: IC50 (μM) 2nd", "result": 52.2, "unit": "µM"}, {"measurement": "AUC 3rd", "setting": "HCT116 in Ex2-1, 3rd", "result": 342.0}, {"measurement": "IC50", "setting": "HCT116 in Ex2-1, 3rd, read-out: IC50 (μM) 3rd", "result": 81.8, "unit": "µM"}, {"measurement": "AUC Average", "setting": "HCT116 in Ex2-1, average", "result": 337.2}, {"measurement": "IC50", "setting": "HCT116 in Ex2-1, average, read-out: IC50 (μM) Average", "result": 60, "unit": "µM"}, {"measurement": "AUC 1st", "setting": "HCT116 in Ex2-2 (Ex2 + Y-27632 10 μM), 1st", "result": 284.9}, {"measurement": "IC50", "setting": "HCT116 in Ex2-2 (Ex2 + Y-27632 10 μM), 1st, read-out: IC50 (μM) 1st", "result": 13, "unit": "µM"}, {"measurement": "AUC 2nd", "setting": "HCT116 in Ex2-2, 2nd", "result": 320.5}, {"measurement": "IC50", "setting": "HCT116 in Ex2-2, 2nd, read-out: IC50 (μM) 2nd", "result": 38.4, "unit": "µM"}, {"measurement": "AUC 3rd", "setting": "HCT116 in Ex2-2, 3rd", "result": 301.0}, {"measurement": "IC50", "setting": "HCT116 in Ex2-2, 3rd, read-out: IC50 (μM) 3rd", "result": 16, "unit": "µM"}, {"measurement": "AUC Average", "setting": "HCT116 in Ex2-2, average", "result": 302.1}, {"measurement": "IC50", "setting": "HCT116 in Ex2-2, average, read-out: IC50 (μM) Average", "result": 22.5, "unit": "µM"}, {"measurement": "AUC 1st", "setting": "HCT116 in Ex2-3 (Ex2 + SB 202190 10 μM), 1st", "result": 306.6}, {"measurement": "IC50", "setting": "HCT116 in Ex2-3 (Ex2 + SB 202190 10 μM), 1st, read-out: IC50 (μM) 1st", "result": 30.2, "unit": "µM"}, {"measurement": "AUC 2nd", "setting": "HCT116 in Ex2-3, 2nd", "result": 343.3}]}
